Source: patent US10787452B2 (Vertex Pharmaceuticals Incorporated, priority 2012, dated 2020)

Tested on: HCT116 colorectal cancer cells
Test: Cisplatin sensitization assay (96 h cell viability MTS);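 further: compound concentration needed to lower the Cisplatin-alone IC50 by a set fold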
Type: cell-based
Conditions: 96 h MTS, compound plus Cisplatin
Method in brief: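 Test compound and cisplatin were added together as a full matrix of 2-fold serial dilutions, each from a top final concentration of 10 μM. Cells were incubated 96 h at 37° C in 5% CO2, then viability was read by MTS after a further 1 h incubation.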

| Structure (SMILES) | Cisplatin Sensitization Assay |
| --- | --- |
| CCOc1ccncc1NC(=O)c1c(N)nn2cc(Cl)cnc12 [I-O-56, 2-amino-6-chloro-N-(4-ethoxypyridin-3-yl)pyrazolo[1,5-a]pyrimidine-3-carboxamide] | +++ (Compounds with a Cisplatin sensitization value of <0.02 μM are marked with “+++.”) |
| Nc1nn2cc(Cl)cnc2c1C(=O)Nc1cnccc1OC1CCCNC1 (centres unmarked) [I-O-75, 2-amino-6-chloro-N-(4-(piperidin-3-yloxy)pyridin-3-yl)pyrazolo[1,5-a]pyrimidine-3-carboxamide] | ++ (Compounds with a Cisplatin sensitization value >0.02 μM but <0.2 μM are marked with “++.”) |
| CN1CCC[C@@H]1COc1ccncc1NC(=O)c1c(N)nn2cc(Cl)cnc12 [I-O-49, (R)-2-amino-6-chloro-N-(4-((1-methylpyrrolidin-2-yl)methoxy)pyridin-3-yl)pyrazolo[1,5-a]pyrimidine-3-carboxamide] | + (Compounds with a Cisplatin sensitization value >0.2 μM but <5 μM are marked with “+.”) |
| CN1CCC(Oc2ccncc2NC(=O)c2c(N)nn3cc(F)cnc23)CC1 [I-O-12, 2-amino-6-fluoro-N-(4-((1-methylpiperidin-4-yl)oxy)pyridin-3-yl)pyrazolo[1,5-a]pyrimidine-3-carboxamide] | +++ (Compounds with a Cisplatin sensitization value of <0.02 μM are marked with “+++.”) |
| CN1CCC(NC(=O)C2CCN(c3c(F)cncc3NC(=O)c3c(N)nn4cc(F)cnc34)CC2)C1 (centres unmarked) [I-G-24, 2-amino-6-fluoro-N-(5-fluoro-4-(4-((1-methylpyrrolidin-3-yl)carbamoyl)piperidin-1-yl)pyridin-3-yl)pyrazolo[1,5-a]pyrimidine-3-carboxamide] | +++ (Compounds with a Cisplatin sensitization value of <0.02 μM are marked with “+++.”) |
| Nc1nn2cc(F)cnc2c1C(=O)Nc1cnccc1N1CCC(C(=O)N2CC3(CCO3)C2)CC1 [I-G-90, N-(4-(4-(1-oxa-6-azaspiro[3.3]heptane-6-carbonyl)piperidin-1-yl)pyridin-3-yl)-2-amino-6-fluoropyrazolo[1,5-a]pyrimidine-3-carboxamide] | +++ (Compounds with a Cisplatin sensitization value of <0.02 μM are marked with “+++.”) |
| Nc1nn2cc(Cl)cnc2c1C(=O)Nc1cncc(F)c1N1CCC(C(=O)N2CCN3CCC2CC3)CC1 [I-G-87, N-(4-(4-(1,4-diazabicyclo[3.2.2]nonane-4-carbonyl)piperidin-1-yl)-5-fluoropyridin-3-yl)-2-amino-6-chloropyrazolo[1,5-a]pyrimidine-3-carboxamide] | +++ (Compounds with a Cisplatin sensitization value of <0.02 μM are marked with “+++.”) |
| Nc1nn2cc(Cl)cnc2c1C(=O)Nc1cnccc1N1CCCC(N)C1 (centres unmarked) [I-N-55, 2-amino-N-(4-(3-aminopiperidin-1-yl)pyridin-3-yl)-6-chloropyrazolo[1,5-a]pyrimidine-3-carboxamide] | ++ (Compounds with a Cisplatin sensitization value >0.02 μM but <0.2 μM are marked with “++.”) |
| CN1CCN(c2cc(N)ncc2NC(=O)c2c(N)nn3cc(Cl)cnc23)CC1 [I-N-50, 2-amino-N-(6-amino-4-(4-methylpiperazin-1-yl)pyridin-3-yl)-6-chloropyrazolo[1,5-a]pyrimidine-3-carboxamide] | + (Compounds with a Cisplatin sensitization value >0.2 μM but <5 μM are marked with “+.”) |
| C[C@@H]1CN(C(=O)C2CCN(c3c(F)cncc3NC(=O)c3c(N)nn4cc(F)cnc34)CC2)CCN1 [I-G-45, (R)-2-amino-6-fluoro-N-(5-fluoro-4-(4-(3-methylpiperazine-1-carbonyl)piperidin-1-yl)pyridin-3-yl)pyrazolo[1,5-a]pyrimidine-3-carboxamide] | +++ (Compounds with a Cisplatin sensitization value of <0.02 μM are marked with “+++.”) |
| Nc1nn2cc(F)cnc2c1C(=O)Nc1cncc(F)c1N1CCN(C(=O)C2COC2)CC1 [I-N-278, 2-amino-6-fluoro-N-(5-fluoro-4-(4-(oxetane-3-carbonyl)piperazin-1-yl)pyridin-3-yl)pyrazolo[1,5-a]pyrimidine-3-carboxamide] | +++ (Compounds with a Cisplatin sensitization value of <0.02 μM are marked with “+++.”) |
| Nc1nn2cc(F)cnc2c1C(=O)Nc1cncc(F)c1N1CCN(S(=O)(=O)C2COC2)CC1 [I-N-201] | +++ (Compounds with a Cisplatin sensitization value of <0.02 μM are marked with “+++.”) |
| CC1CN(C)CCN1c1ccncc1NC(=O)c1c(N)nn2cc(Cl)cnc12 (centres unmarked) [I-N-72, 2-amino-6-chloro-N-(4-(2,4-dimethylpiperazin-1-yl)pyridin-3-yl)pyrazolo[1,5-a]pyrimidine-3-carboxamide] | +++ (Compounds with a Cisplatin sensitization value of <0.02 μM are marked with “+++.”) |
| Nc1nn2cc(Cl)cnc2c1C(=O)Nc1cnccc1OC1CC2(CNC2)C1 [I-O-72, N-(4-(2-azaspiro[3.3]heptan-6-yloxy)pyridin-3-yl)-2-amino-6-chloropyrazolo[1,5-a]pyrimidine-3-carboxamide] | + (Compounds with a Cisplatin sensitization value >0.2 μM but <5 μM are marked with “+.”) |
| Nc1nn2cc(F)cnc2c1C(=O)Nc1cnccc1N1CCCC2(COC2)C1 [I-N-253, N-(4-(2-oxa-6-azaspiro[3.5]nonan-6-yl)pyridin-3-yl)-2-amino-6-fluoropyrazolo[1,5-a]pyrimidine-3-carboxamide] | +++ (Compounds with a Cisplatin sensitization value of <0.02 μM are marked with “+++.”) |
| Cn1nccc1-c1ccncc1NC(=O)c1c(N)nn2cc(F)cnc12 [I-C-57, 2-amino-6-fluoro-N-(4-(1-methyl-1H-pyrazol-5-yl)pyridin-3-yl)pyrazolo[1,5-a]pyrimidine-3-carboxamide] | +++ (Compounds with a Cisplatin sensitization value of <0.02 μM are marked with “+++.”) |
| Nc1nn2cc(F)cnc2c1C(=O)Nc1cncc(F)c1N1CCN(C(=O)CN2CCC2)CC1 [I-N-160, 2-amino-N-(4-(4-(2-(azetidin-1-yl)acetyl)piperazin-1-yl)-5-fluoropyridin-3-yl)-6-fluoropyrazolo[1,5-a]pyrimidine-3-carboxamide] | +++ (Compounds with a Cisplatin sensitization value of <0.02 μM are marked with “+++.”) |
| CC1(S(C)(=O)=O)CCN(c2ccncc2NC(=O)c2c(N)nn3cc(F)cnc23)CC1 [I-N-243, 2-amino-6-fluoro-N-(4-(4-methyl-4-(methylsulfonyl)piperidin-1-yl)pyridin-3-yl)pyrazolo[1,5-a]pyrimidine-3-carboxamide] | +++ (Compounds with a Cisplatin sensitization value of <0.02 μM are marked with “+++.”) |
| Nc1nn2cc(Cl)cnc2c1C(=O)Nc1cnccc1N1CCn2cncc2C1 [I-N-75, 2-amino-6-chloro-N-(4-(5,6-dihydroimidazo[1,5-a]pyrazin-7(8H)-yl)pyridin-3-yl)pyrazolo[1,5-a]pyrimidine-3-carboxamide] | +++ (Compounds with a Cisplatin sensitization value of <0.02 μM are marked with “+++.”) |
| Cn1nncc1-c1ccncc1NC(=O)c1c(N)nn2cc(F)cnc12 [I-C-72, 2-amino-6-fluoro-N-(4-(1-methyl-1H-1,2,3-triazol-5-yl)pyridin-3-yl)pyrazolo[1,5-a]pyrimidine-3-carboxamide] | +++ (Compounds with a Cisplatin sensitization value of <0.02 μM are marked with “+++.”) |
